From PubChem BioAssay (NCI)
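These data come from cells grown in 96-well plates and exposed to compound for 48 hours at five concentrations. TGI denotes the concentration required for complete inhibition of growth.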

How the values were obtained:
Assay in all cases: growth of human tumour cells (NCI), 48 h
T-47D breast = test system: T-47D breast
SK-MEL-5 melanoma = test system: SK-MEL-5 melanoma
M14 melanoma = test system: M14 melanoma
NCI/ADR-RES ovarian = test system: NCI/ADR-RES ovarian
OVCAR-4 ovarian = test system: OVCAR-4 ovarian
HT29 colon = test system: HT29 colon
SF-539 CNS = test system: SF-539 CNS
HCT-15 colon = test system: HCT-15 colon
NCI-H460 lung = test system: NCI-H460 lung
SN12C renal = test system: SN12C renal
OVCAR-8 ovarian = test system: OVCAR-8 ovarian
DU-145 prostate = test system: DU-145 prostate
A498 renal = test system: A498 renal
MCF7 breast = test system: MCF7 breast
ACHN renal = test system: ACHN renal
K-562 leukemia = test system: K-562 leukemia
SK-MEL-28 melanoma = test system: SK-MEL-28 melanoma
LOX IMVI melanoma = test system: LOX IMVI melanoma
HL-60(TB) leukemia = test system: HL-60(TB) leukemia
EKVX NSCLC = test system: EKVX NSCLC
A549 NSCLC = test system: A549 NSCLC
CAKI-1 renal = test system: CAKI-1 renal
PC-3 prostate = test system: PC-3 prostate
SK-MEL-2 melanoma = test system: SK-MEL-2 melanoma
SF-295 CNS = test system: SF-295 CNS
SK-OV-3 ovarian = test system: SK-OV-3 ovarian
786-0 renal = test system: 786-0 renal
U251 CNS = test system: U251 CNS
OVCAR-5 ovarian = test system: OVCAR-5 ovarian
SF-268 CNS = test system: SF-268 CNS
NCI-H23 lung = test system: NCI-H23 lung
SR leukemia = test system: SR leukemia
UACC-62 melanoma = test system: UACC-62 melanoma
COLO 205 colon = test system: COLO 205 colon
MOLT-4 leukemia = test system: MOLT-4 leukemia
SNB-19 CNS = test system: SNB-19 CNS
HS 578T breast = test system: HS 578T breast
HOP-62 NSCLC = test system: HOP-62 NSCLC
MDA-MB-231 breast = test system: MDA-MB-231 breast
UACC-257 melanoma = test system: UACC-257 melanoma
HOP-92 NSCLC = test system: HOP-92 NSCLC
HCT-116 colon = test system: HCT-116 colon
KM12 colon = test system: KM12 colon
NCI-H522 lung = test system: NCI-H522 lung
IGROV1 ovarian = test system: IGROV1 ovarian
SW-620 colon = test system: SW-620 colon
BT-549 breast = test system: BT-549 breast
RXF 393 renal = test system: RXF 393 renal
RPMI-8226 leukemia = test system: RPMI-8226 leukemia
OVCAR-3 ovarian = test system: OVCAR-3 ovarian
MDA-MB-435 = test system: MDA-MB-435
TK-10 renal = test system: TK-10 renal
MALME-3M melanoma = test system: MALME-3M melanoma
UO-31 renal = test system: UO-31 renal
MDA-N = test system: MDA-N
CCRF-CEM leukemia = test system: CCRF-CEM leukemia
SNB-75 CNS = test system: SNB-75 CNS
HCC-2998 colon = test system: HCC-2998 colon
NCI-H226 lung = test system: NCI-H226 lung

CC[C@H](C)C1=C(O)[N@+]2([O-])Oc3ccc(-c4c(O)c(O)c(-c5ccc(O)cc5)c(OC(C)=O)c4OC(C)=O)cc3O[C@]2([C@@H](C)CC)C(=O)N1O
TGI (T-47D breast): > 50 µM | TGI (SK-MEL-5 melanoma): > 50 µM | TGI (M14 melanoma): > 50 µM | TGI (NCI/ADR-RES ovarian): > 50 µM | TGI (OVCAR-4 ovarian): 36.2 µM | TGI (HT29 colon): > 50 µM | TGI (SF-539 CNS): > 50 µM | TGI (HCT-15 colon): > 50 µM | TGI (NCI-H460 lung): > 50 µM | TGI (SN12C renal): > 50 µM | TGI (OVCAR-8 ovarian): > 50 µM | TGI (DU-145 prostate): > 50 µM | TGI (A498 renal): > 50 µM | TGI (MCF7 breast): > 50 µM | TGI (ACHN renal): > 50 µM | TGI (K-562 leukemia): > 50 µM | TGI (SK-MEL-28 melanoma): > 50 µM | TGI (LOX IMVI melanoma): > 50 µM | TGI (HL-60(TB) leukemia): > 50 µM | TGI (EKVX NSCLC): > 50 µM | TGI (A549 NSCLC): > 50 µM | TGI (CAKI-1 renal): > 50 µM | TGI (PC-3 prostate): > 50 µM | TGI (SK-MEL-2 melanoma): > 50 µM | TGI (SF-295 CNS): > 50 µM | TGI (SK-OV-3 ovarian): 48 µM | TGI (786-0 renal): > 50 µM | TGI (U251 CNS): > 50 µM | TGI (OVCAR-5 ovarian): > 50 µM | TGI (SF-268 CNS): > 50 µM | TGI (NCI-H23 lung): > 50 µM | TGI (SR leukemia): > 50 µM | TGI (UACC-62 melanoma): > 50 µM | TGI (COLO 205 colon): > 50 µM | TGI (MOLT-4 leukemia): > 50 µM | TGI (SNB-19 CNS): > 50 µM | TGI (HS 578T breast): > 50 µM | TGI (HOP-62 NSCLC): > 50 µM | TGI (MDA-MB-231 breast): > 50 µM | TGI (UACC-257 melanoma): > 50 µM | TGI (HOP-92 NSCLC): 32.1 µM | TGI (HCT-116 colon): 20.2 µM | TGI (KM12 colon): > 50 µM | TGI (NCI-H522 lung): 17.4 µM | TGI (IGROV1 ovarian): 28.2 µM | TGI (SW-620 colon): > 50 µM | TGI (BT-549 breast): > 50 µM | TGI (RXF 393 renal): > 50 µM | TGI (RPMI-8226 leukemia): 29.9 µM | TGI (OVCAR-3 ovarian): > 50 µM | TGI (MDA-MB-435): > 50 µM | TGI (TK-10 renal): > 50 µM | TGI (MALME-3M melanoma): > 50 µM | TGI (UO-31 renal): > 50 µM | TGI (MDA-N): > 50 µM

CN(C)c1ccc(C(c2ccc(Cl)cc2)c2ccc(N(C)C)cc2)cc1
TGI (T-47D breast): > 100 µM | TGI (SK-MEL-5 melanoma): > 100 µM | TGI (M14 melanoma): > 100 µM | TGI (NCI/ADR-RES ovarian): > 100 µM | TGI (HT29 colon): > 100 µM | TGI (SF-539 CNS): > 100 µM | TGI (HCT-15 colon): > 100 µM | TGI (NCI-H460 lung): > 100 µM | TGI (SN12C renal): > 100 µM | TGI (OVCAR-8 ovarian): > 100 µM | TGI (DU-145 prostate): > 100 µM | TGI (A498 renal): > 100 µM | TGI (MCF7 breast): > 100 µM | TGI (ACHN renal): > 100 µM | TGI (K-562 leukemia): > 100 µM | TGI (SK-MEL-28 melanoma): > 100 µM | TGI (CCRF-CEM leukemia): > 100 µM | TGI (LOX IMVI melanoma): > 100 µM | TGI (HL-60(TB) leukemia): > 100 µM | TGI (EKVX NSCLC): > 100 µM | TGI (A549 NSCLC): > 100 µM | TGI (SNB-75 CNS): > 100 µM | TGI (CAKI-1 renal): > 100 µM | TGI (HCC-2998 colon): > 100 µM | TGI (PC-3 prostate): > 100 µM | TGI (SK-MEL-2 melanoma): > 100 µM | TGI (SF-295 CNS): > 100 µM | TGI (SK-OV-3 ovarian): > 100 µM | TGI (786-0 renal): > 100 µM | TGI (U251 CNS): > 100 µM | TGI (OVCAR-5 ovarian): > 100 µM | TGI (SF-268 CNS): > 100 µM | TGI (NCI-H23 lung): > 100 µM | TGI (SR leukemia): > 100 µM | TGI (UACC-62 melanoma): > 100 µM | TGI (COLO 205 colon): > 100 µM | TGI (MOLT-4 leukemia): > 100 µM | TGI (SNB-19 CNS): > 100 µM | TGI (HS 578T breast): > 100 µM | TGI (HOP-62 NSCLC): > 100 µM | TGI (MDA-MB-231 breast): > 100 µM | TGI (UACC-257 melanoma): > 100 µM | TGI (HOP-92 NSCLC): > 100 µM | TGI (HCT-116 colon): > 100 µM | TGI (KM12 colon): > 100 µM | TGI (NCI-H522 lung): > 100 µM | TGI (IGROV1 ovarian): > 100 µM | TGI (SW-620 colon): > 100 µM | TGI (BT-549 breast): > 100 µM | TGI (RXF 393 renal): > 100 µM | TGI (RPMI-8226 leukemia): > 100 µM | TGI (OVCAR-3 ovarian): > 100 µM | TGI (MDA-MB-435): > 100 µM | TGI (TK-10 renal): > 100 µM | TGI (MALME-3M melanoma): > 100 µM | TGI (UO-31 renal): > 100 µM | TGI (MDA-N): > 100 µM

CCN(CC)c1ccc2cc(C(=O)Nc3ccc(C)cc3)c(=N)oc2c1
TGI (T-47D breast): > 100 µM | TGI (SK-MEL-5 melanoma): > 100 µM | TGI (M14 melanoma): > 100 µM | TGI (NCI/ADR-RES ovarian): > 100 µM | TGI (OVCAR-4 ovarian): > 100 µM | TGI (HT29 colon): > 100 µM | TGI (HCT-15 colon): > 100 µM | TGI (NCI-H460 lung): > 100 µM | TGI (SN12C renal): > 100 µM | TGI (OVCAR-8 ovarian): > 100 µM | TGI (DU-145 prostate): > 100 µM | TGI (A498 renal): > 100 µM | TGI (MCF7 breast): > 100 µM | TGI (ACHN renal): > 100 µM | TGI (K-562 leukemia): > 100 µM | TGI (SK-MEL-28 melanoma): > 100 µM | TGI (CCRF-CEM leukemia): > 100 µM | TGI (LOX IMVI melanoma): > 100 µM | TGI (HL-60(TB) leukemia): > 100 µM | TGI (EKVX NSCLC): > 100 µM | TGI (A549 NSCLC): > 100 µM | TGI (SNB-75 CNS): > 100 µM | TGI (CAKI-1 renal): > 100 µM | TGI (HCC-2998 colon): > 100 µM | TGI (PC-3 prostate): > 100 µM | TGI (SK-MEL-2 melanoma): > 100 µM | TGI (SK-OV-3 ovarian): > 100 µM | TGI (786-0 renal): > 100 µM | TGI (U251 CNS): > 100 µM | TGI (OVCAR-5 ovarian): > 100 µM | TGI (SF-268 CNS): > 100 µM | TGI (NCI-H226 lung): > 100 µM | TGI (NCI-H23 lung): > 100 µM | TGI (SR leukemia): > 100 µM | TGI (UACC-62 melanoma): > 100 µM | TGI (COLO 205 colon): > 100 µM | TGI (MOLT-4 leukemia): > 100 µM | TGI (SNB-19 CNS): > 100 µM | TGI (HS 578T breast): > 100 µM | TGI (HOP-62 NSCLC): > 100 µM | TGI (MDA-MB-231 breast): > 100 µM | TGI (UACC-257 melanoma): > 100 µM | TGI (HOP-92 NSCLC): > 100 µM | TGI (HCT-116 colon): > 100 µM | TGI (KM12 colon): > 100 µM | TGI (IGROV1 ovarian): > 100 µM | TGI (SW-620 colon): > 100 µM | TGI (BT-549 breast): > 100 µM | TGI (RXF 393 renal): > 100 µM | TGI (RPMI-8226 leukemia): > 100 µM | TGI (OVCAR-3 ovarian): > 100 µM | TGI (MDA-MB-435): > 100 µM | TGI (MALME-3M melanoma): > 100 µM | TGI (MDA-N): > 100 µM
